Test results published in patent publication US8772287B2, “Pyrimidinyl and 1,3,5-triazinyl benzimidazole sulfonamides and their use in cancer therapy” (VetDC, Inc., priority 2009, dated 2014).
Like-named read-outs stand apart in the source and are kept apart here.

How the values were obtained:
NZB5 = experiment: Cellular growth inhibition, NZB5 (3H-thymidine incorporation); format: cell-based, human
Protocol: (§1) The compounds were evaluated against two early passage human cell lines NZB5 and NZOV9 (Marshall et al., Oncol. Res. 2004, 14, 297). The cells were grown in ITS medium (α-modified minimal essential medium supplemented insulin, transferrin, selenite, and 5% fetal bovine serum) and grown on 96-well tissue culture plates under an atmosphere of 5% O2, 5% CO2, and 90% N2. Individual wells contained 500-1,000 cells (depending on the growth rate) in a volume of 150 μL. Compounds were added at 10-fold concentration steps to a maximum of 20 μM and plates were incubated for five days, with ^3H-thymidine being added over the last 6 hrs. Cells were harvested and incorporated radioactivity measured. Duplicate samples were analyzed for each compound dose with multiple control samples.

NZOV9 = experiment: Cellular growth inhibition, NZOV9 (3H-thymidine incorporation); format: cell-based, human
Protocol: as §1

[1] = Homo sapiens, NZB5, read-out: Cell IC50 NZB5
[2] = Homo sapiens, NZOV9, read-out: Cell IC50 NZOV9

| SMILES | IC50 (NZB5; [1]) [nM] | melting point [°C] | IC50 (NZOV9; [2]) [nM] | IC50 (NZB5; read-out: Cell IC50 NZB5, five days incubation, 3H-thymidine over the last 6 hrs) [nM] | IC50 (NZOV9; read-out: Cell IC50 NZOV9, five days incubation, 3H-thymidine over the last 6 hrs) [nM] | IC50 (NZB5; Homo sapiens, NZB5, five days incubation, 3H-thymidine over the last 6 hrs, read-out: Cell IC50 NZB5) [nM] | IC50 (NZOV9; Homo sapiens, NZOV9, five days incubation, 3H-thymidine over the last 6 hrs, read-out: Cell IC50 NZOV9) [nM] |
| --- | --- | --- | --- | --- | --- | --- | --- |
| COc1cccc2c1nc(C(F)F)n2-c1nc(N2CCOCC2)nc(N2CCCC(N(C)S(C)(=O)=O)C2)n1 (stereo in doubt) [Example 45, N-{(3R)-1-[4-[2-(difluoromethyl)-4-methoxy-1H-benzimidazol-1-yl]-6-(4-morpholinyl)-1,3,5-triazin-2-yl]piperidinyl}-N-methylmethanesulfonamide] | 100 to 1000 | 224 to 226 | < 100 |  |  |  |  |
| COc1cccc2c1nc(C(F)F)n2-c1nc(N2CCOCC2)nc(N2CCCC(NS(C)(=O)=O)C2)n1 (stereo in doubt) [Example 46, N-{(3S)-1-[4-[2-(difluoromethyl)-4-methoxy-1H-benzimidazol-1-yl]-6-(4-morpholinyl)-1,3,5-triazin-2-yl]piperidinyl}methanesulfonamide] | 100 to 1000 | 220 to 221 | < 100 |  |  |  |  |
| COc1cccc2c1nc(C(F)F)n2-c1nc(N2CCOCC2)nc(N2CCCC(N(C)S(C)(=O)=O)C2)n1 (stereo in doubt) [Example 47, N-{(3S)-1-[4-[2-(difluoromethyl)-4-methoxy-1H-benzimidazol-1-yl]-6-(4-morpholinyl)-1,3,5-triazin-2-yl]piperidinyl}-N-methylmethanesulfonamide] | 100 to 1000 | 221 to 223 | < 100 |  |  |  |  |
| COc1cccc2c1nc(C(F)F)n2-c1nc(N2CCOCC2)nc(N2CCN(S(C)(=O)=O)CC2)n1 [Example 2, 2-(difluoromethyl)-4-methoxy-1-[4-[4-(methylsulfonyl)-1-piperazinyl]-6-(4-morpholinyl)-1,3,5-triazin-2-yl]-1H-benzimidazole] | 100 to 1000 | 311 to 314 | 100 to 1000 |  |  |  |  |
| COc1cccc2c1nc(C(F)F)n2-c1nc(N[C@@H]2CCN(S(C)(=O)=O)C2)nc(N2CCOCC2)n1 [Example 32, 4-[2-(difluoromethyl)-4-methoxy-1H-benzimidazol-1-yl]-N-[(3R)-1-(methylsulfonyl)pyrrolidinyl]-6-(4-morpholinyl)-1,3,5-triazin-2-amine] | 100 to 1000 | 260 to 261 | < 100 |  |  |  |  |
| COc1cccc2c1nc(C(F)F)n2-c1nc(N2CCOCC2)nc(N(C)[C@@H]2CCN(S(C)(=O)=O)C2)n1 [Example 33, 4-[2-(difluoromethyl)-4-methoxy-1H-benzimidazol-1-yl]-N-methyl-N-[(3R)-1-(methylsulfonyl)pyrrolidinyl]-6-(4-morpholinyl)-1,3,5-triazin-2-amine] | < 100 | 238 to 240 | < 100 |  |  |  |  |
| COc1cccc2c1nc(C(F)F)n2-c1nc(N[C@@H]2CCCN(S(C)(=O)=O)C2)nc(N2CCOCC2)n1 [Example 40, 4-[2-(difluoromethyl)-4-methoxy-1H-benzimidazol-1-yl]-N-[(3R)-1-(methylsulfonyl)piperidinyl]-6-(4-morpholinyl)-1,3,5-triazin-2-amine] | 100 to 1000 | 241 to 243 | < 100 |  |  |  |  |
| COc1cccc2c1nc(C(F)F)n2-c1nc(N[C@H]2CCCN(S(C)(=O)=O)C2)nc(N2CCOCC2)n1 [Example 42, 4-[2-(difluoromethyl)-4-methoxy-1H-benzimidazol-1-yl]-N-[(3S)-1-(methylsulfonyl)piperidinyl]-6-(4-morpholinyl)-1,3,5-triazin-2-amine] |  | 239 to 241 |  | 100 to 1000 | < 100 |  |  |
| COc1cccc2c1nc(C(F)F)n2-c1nc(OC2CCN(S(=O)(=O)CCN3CCN(S(C)(=O)=O)CC3)CC2)nc(N2CCOCC2)n1 [Example 52, 2-(difluoromethyl)-4-methoxy-1-[4-{[1-({2-[4-(methylsulfonyl)-1-piperazinyl]ethyl}sulfonyl)-4-piperidinyl]oxy}-6-(4-morpholinyl)-1,3,5-triazin-2-yl]-1H-benzimidazole] |  | 251 to 254 |  |  |  | > 1000 | > 1000 |
